Among the data in ChEMBL document CHEMBL1128334, “X-ray crystal structure, partitioning behavior, and molecular modeling study of piracetam-type nootropics: insights into the pharmacophore” (J Med Chem, 1995) are logP values, retold here.

The nature of the first data set: Partition coefficient (logP). Format: physicochemical. The following applies: octanol/water.
`O=C1CC2C(=O)NCC2CN1` (stereo in doubt; 2) came in with a logP of -2.11. On the same count and under the same terms, as for `O=C1CC2C(=O)NCC2CN1` (stereo in doubt; 3), the figure is -2; as for `CCOC(=O)C1CNC(=O)CC1C(=O)OCC` (stereo in doubt; 6), -0.03. Same read-out and setting: under `CCOC(=O)C1CNC(=O)CC1C(=O)OCC` (stereo in doubt; 7) stands 0.17.

Staying with this data set, now noted: octanol/water; read-out: logP.
For `O=C1CCCCN1`, the lipophilicity (logP) was -0.47.

With `O=C1NCC[C@@H]2CNC(=O)[C@H]12`, the logP was -1.95. Turning to `O=C1CCCN1` [2-PYRROLIDONE], the logP was -0.71. As to `NC(=O)CN1CCCC1=O` [PIRACETAM], the logP was -1.54.

`O=C1CCC2CCC(=O)N12` [ROLZIRACETAM]: the lipophilicity (logP) was -1.11.
